Laboratory results: publication PMC11892739, “Site-specific molecular glues for the 14-3-3/Tau pS214 protein–protein interaction via reversible covalent imine tethering” (RSC Medicinal Chemistry, 2025)

molecular target: T1, 14-3-3ζ/Tau pS2 peptide (Homo sapiens, UniProt P63104); experiment: Differential scanning fluorimetry of 14-3-3 with Tau pS2 peptide and compounds; type: binding; conditions: compound 30-fold compared to 14-3-3ζ (75 μM), Tau pS2 peptide 25 μM, 14-3-3 2.5 μM; read-out: additional increase in melting temperature relative to the binary 14-3-3ζ/Tau pS2 peptide system
T1 construct: made in house; host or cells: NiCo21 (DE3) E. coli
T1 sequence (P63104 1-245): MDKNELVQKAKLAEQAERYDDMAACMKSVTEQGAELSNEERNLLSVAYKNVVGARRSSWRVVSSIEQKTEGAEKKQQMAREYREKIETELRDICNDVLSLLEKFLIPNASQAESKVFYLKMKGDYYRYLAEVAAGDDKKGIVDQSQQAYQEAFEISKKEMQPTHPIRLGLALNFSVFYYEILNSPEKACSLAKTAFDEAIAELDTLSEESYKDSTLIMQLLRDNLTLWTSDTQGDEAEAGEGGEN
Description: Fig. 3 a Dose–response fluorescence anisotropy data of compound titrations to 10 nM FITC-labeled Tau pS2 peptide and 100 nM 14-3-3ζ. […] Mean of three individually performed experiments (see ESI ^† Fig. S8 for the protein titrations). e Differential scanning fluorimetry assay results. Identified melting temperatures (Tm) of 14-3-3γ alone (2.5 μM) and in the presence of Tau pS2 peptide (25 μM) and additionally with selected compounds (75 μM).
As an orthogonal method to profile the PPI stabilizing activity of selected compounds, differential scanning fluorimetry (DSF) assays were performed (Fig. 3e). […] Upon addition of compounds (1, 11, 13–14, and 20–22) to this PPI complex (30-fold compared to 14-3-3ζ), an additional increase in melting temperature between 0.9 °C and 2.1 °C was observed relative to the binary 14-3-3ζ/Tau pS2 peptide system. These observations are in agreement with the stabilization observed in the FA data and strongly testify to the molecular glue effect of our compound, by enhancing the stability of the PPI complex. […]
chromatography (HisTrap high performance cartridges, Cytiva). Typically two 5 mL columns were used for a 2 L culture in which the lysate was loaded on the column, washed with 10 CV wash buffer (50 mM Hepes, pH 8.0, 300 mM NaCl, 25 mM imidazole, 2 mM βME), and eluted with several fractions (2-4 CV) of elution buffer (50 mM Hepes, pH 8.0, 300 mM NaCl, 250 mM imidazole, 2 mM βME). Fractions containing the 14-3-3 protein were combined and dialyzed into 25 mM HEPES pH 8.0, 200 mM NaCl, 10 mM MgCl2, 2 mM βME, followed by dialysis into 25 mM HEPES, 100 mM NaCl, 10 mM MgCl2, 500 μM TCEP (adjusted to pH 8.0). Dialyzed protein was concentrated to ∼40 mg/mL, analyzed by Q -Tof LC/MS, and aliquots were flash -frozen for storage at −80 °C. For 14 -3-3σ∆c, 1 mg TEV per 100 mg purified protein was added to the dialysis to remove the purification tag. The cleaved sample was then again loaded on a 10 mL Ni-NTA column to separate the cleaved product from the expression tag and residual uncleaved protein. The flowthrough was loade d on a Superdex 75 pg 16/60 size exclusion column (GE Life Sciences) using 25 mM HEPES, 100 mM NaCl, 10 mM MgCl2, 500 μM TCEP (adjusted to pH = 8.0) as running buffer. Fractions containing the 14 -3-3 protein were pooled and concentrated to ∼60 mg/mL, analyzed Q -Tof LC/MS, and aliquots were flash -frozen for storage at −80°C. […]
The peptide screen was performed in a similar way as the 14-3-3ζ titration in the precence of compound.
14-3-3ζ was titrated in a 2-fold dilution series (starting at 400 µM 14-3-3ζ) to 100 nM of fluorescein-labeled peptides and 250 µM compound 18 (1% DMSO) in FA buffer (10 mM HEPES pH 7.4, 150 mM […]
Data shown is the average of a scientific triplicate.
Differential Scanning Fluorimetry (DSF)
DSF was performed using 40 µl samples containing 2.5 µM 14 -3-3ζ, 25 µM Tau peptide (Tau pS2, Tau pS214 or Tau pS324), […] (1% DMSO) and 5x ProteoOrange (Lumiprobe, 5000x stock in DMSO) in 10 mM HEPES, 150 mM NaCl, 50 µM TCEP (pH 7.4). The samples were heated from 35 °C to 79°C at a rate of 0.3 °C per 15 s in a C FX96 Touch Real-Time PCR Detection System (Bio -Rad). Fluorescence intensity was determined using excitation ( λem=525/20 nm) and emission ( λex=570/20 nm) filters.
Based on these melting curves, the negative derivative melting curve is obtained from which the melting temperature Tm was determined. All described melting temperatures are based on two or three independent experiments, from which the average and standard deviations were determined.
X-ray crystallography data collection and refinement
For x-ray crystallography, a C-terminally truncated 14-3-3σ protein (truncated after T231 to reduce flexibility) was used. This 14-3-3σ∆C was preincubated with Tau pS214 in complexation buffer (20 mM HEPES pH 7.5, 2 mM MgCl2 and 100 μM TCEP) in a 1:1.5 molar stoichiometry (protein:peptide) at a final protein concentration of 10.0 mg/mL. […]

ΔTm, 0.9 to 2.1 °C:
O=Cc1ccc(-n2ccnc2-c2ccccc2)cc1Br [Compound 1]
Cc1ccc(-c2nccn2-c2ccc(C=O)c(Br)c2)cc1 [Compound 11]
O=Cc1ccc(-n2ccnc2-c2ccc(F)cc2)cc1Br [Compound 13]
O=Cc1ccc(-n2ccnc2-c2ccc(Cl)cc2)cc1Br [Compound 14]
O=Cc1ccc(-n2ccnc2-c2ccc(C(F)(F)F)cc2)cc1Br [Compound 20]
O=Cc1ccc(-n2ccnc2-c2ccc(OC(F)(F)F)cc2)cc1Br [Compound 21]
N#Cc1ccc(-c2nccn2-c2ccc(C=O)c(Br)c2)cc1 [Compound 22]
